Assay results reported in patent US20100311741A1, “Bicyclosulfonyl Acid (BCSA) Compounds and Their Use as Therapeutic Agents” (INHIBOX LTD., priority 2007, published 2010).

Structure (SMILES)	melting point
COc1cccc2c1C(CC(=O)NO)N(c1ccccc1)S2(=O)=O (stereo not drawn) [Compound 54.1, 2-(4-Methoxy-1,1-dioxo-2-phenyl-2,3-dihydro-1H-benzo[d]isothiazol-3-yl)-N-hydroxyacetamide]	188 to 190 °C
O=C(CC1c2c(Cl)cccc2S(=O)(=O)N1c1ccccc1)NO (stereo not drawn) [Compound 54.2, 2-(4-Chloro-1,1-dioxo-2-phenyl-2,3-dihydro-1H-benzo[d]isothiazol-3-yl)-N-hydroxyacetamide]	204 to 206 °C
O=C(CC1c2cccc(C(F)(F)F)c2S(=O)(=O)N1c1ccccc1)NO (stereo not drawn) [Compound 54.3]	187 to 189 °C
O=C(CC1c2cccc(Cl)c2S(=O)(=O)N1c1ccccc1)NO (stereo not drawn) [Compound 54.7, 2-(7-Chloro-1,1-dioxo-2-phenyl-2,3-dihydro-1H-benzo[d]isothiazol-3-yl)-N-hydroxyacetamide]	> 188 °C (dec.)
COc1cccc2c1S(=O)(=O)N(c1ccccc1)C2CC(=O)NO (stereo not drawn) [Compound 54.10, (7-Methoxy-1,1-dioxo-2-phenyl-2,3-dihydro-1H-benzo[d]isothiazol-3-yl)-N-hydroxyacetamide]	> 161 °C (dec.)
COc1cc(Cl)cc2c1S(=O)(=O)N(c1ccccc1)C2CC(=O)NO (stereo not drawn) [Compound 54.11, (5-Chloro-7-Methoxy-1,1-dioxo-2-phenyl-2,3-dihydro-1H-benzo[d]isothiazol-3-yl)-N-hydroxyacetamide]	> 170 °C (dec.)
COc1ccc2c(c1Cl)C(CC(=O)NO)N(c1ccccc1)S2(=O)=O (stereo not drawn) [Compound 54.12, (4-Chloro-5-Methoxy-1,1-dioxo-2-phenyl-2,3-dihydro-1H-benzo[d]isothiazol-3-yl)-N-hydroxyacetamide]	184 to 188 °C (dec.)
O=C(NO)C1c2ccccc2S(=O)(=O)N1c1ccccc1 (stereo not drawn) [Compound 62.1, 1,1-Dioxo-2-phenyl-2,3-dihydro-1H-benzo[d]isothiazole-3-carboxylic acid hydroxyamide]	188 to 191 °C
O=C(NO)C1c2c(Cl)cccc2S(=O)(=O)N1c1ccccc1 (stereo not drawn) [Compound 62.2, 4-Chloro-1,1-dioxo-2-phenyl-2,3-dihydro-1H-benzo[d]isothiazole-3-carboxylic acid hydroxyamide]	167 to 170 °C
COc1cccc(N2C(CC(=O)NO)c3ccccc3S2(=O)=O)c1 (stereo not drawn) [Compound (5.7), 2-[2-(3-Methoxyphenyl)-1,1-dioxo-2,3-dihydro-1H-benzo[d]isothiazol-3-yl]-N-hydroxyacetamide]	147 to 148 °C
COc1ccc(N2C(CC(=O)NO)c3ccccc3S2(=O)=O)cc1 (stereo not drawn) [Compound (5.8), 2-[2-(4-Methoxyphenyl)-1,1-dioxo-2,3-dihydro-1H-benzo[d]isothiazol-3-yl]-N-hydroxyacetamide]	185 to 186 °C
O=C(CC1c2ccccc2S(=O)(=O)N1c1cccc(Oc2ccccc2)c1)NO (stereo not drawn) [Compound (5.9), 2-[2-(3-Phenoxyphenyl)-1,1-dioxo-2,3-dihydro-1H-benzo[d]isothiazol-3-yl]-N-hydroxyacetamide]	181 to 182 °C
O=C(CC1c2ccccc2S(=O)(=O)N1c1ccc(Cl)cc1)NO (stereo not drawn) [Compound (5.10), 2-[2-(4-Chlorophenyl)-1,1-dioxo-2,3-dihydro-1H-benzo[d]isothiazol-3-yl]-N-hydroxyacetamide]	184 to 185 °C
CSc1ccc(N2C(CC(=O)NO)c3ccccc3S2(=O)=O)cc1 (stereo not drawn) [Compound (5.20), 2-[1,1-Dioxo-2-(4-methylsulfanylphenyl)-2,3-dihydro-1H-benzo[d]isothiazol-3-yl]-N-hydroxyacetamide]	197 to 198 °C (dec.)
O=C(CC1c2ccccc2S(=O)(=O)N1c1ccc(-c2ccccc2)cc1)NO (stereo not drawn) [Compound (5.23), 2-(2-Biphenyl-4-yl-1,1-dioxo-2,3-dihydro-1H-benzo[d]isothiazol-3-yl)-N-hydroxyacetamide]	207 to 208 °C (dec.)
O=C(CC1c2ccccc2S(=O)(=O)N1c1ccc(Oc2ccccc2)cc1)NO (stereo not drawn) [Compound (5.24), 2-[1,1-Dioxo-2-(4-phenoxy-phenyl)-2,3-dihydro-1H-benzo[d]isothiazol-3-yl]-N-hydroxyacetamide]	174 to 175 °C
O=C(CC1c2ccccc2S(=O)(=O)N1c1ccc(OCc2ccccc2)cc1)NO (stereo not drawn) [Compound (5.25), 2-[2-(4-Benzyloxy-phenyl)-1,1-dioxo-2,3-dihydro-1H-benzo[d]isothiazol-3-yl]-N-hydroxyacetamide]	186 to 187 °C
O=C(CC1c2ccccc2S(=O)(=O)N1c1ccc(-n2cccc2)cc1)NO (stereo not drawn) [Compound (5.26), 2-[1,1-Dioxo-2-(4-pyrrol-1-yl-phenyl)-2,3-dihydro-1H-benzo[d]isothiazol-3-yl]-N-hydroxyacetamide]	192 to 194 °C (dec.)
O=C(CC1c2ccccc2S(=O)(=O)N1c1ccc(-n2ccnc2)cc1)NO (stereo not drawn) [Compound (5.27), 2-[2-(4-Imidazol-1-yl-phenyl)-1,1-dioxo-2,3-dihydro-1H-benzo[d]isothiazol-3-yl]-N-hydroxyacetamide]	199 to 201 °C (dec.)
O=C(CC1c2ccccc2S(=O)(=O)N1c1ccc(-n2cncn2)cc1)NO (stereo not drawn) [Compound (5.28), 2-[1,1-Dioxo-2-(4-[1,2,4]triazol-1-yl-phenyl)-2,3-dihydro-1H-benzo[d]isothiazol-3-yl]-N-hydroxyacetamide]	205 to 207 °C (dec.)
O=C(CC1c2ccccc2S(=O)(=O)N1c1ccc(-c2cnco2)cc1)NO (stereo not drawn) [Compound (5.29), 2-[2-(4-Oxazol-5-yl-phenyl)-1,1-dioxo-2,3-dihydro-1H-benzo[d]isothiazol-3-yl]-N-hydroxyacetamide]	138 to 140 °C (dec.)
Cc1nc(-c2ccc(N3C(CC(=O)NO)c4ccccc4S3(=O)=O)cc2)cs1 (stereo not drawn) [Compound (5.30), 2-{2-[4-(2-Methylthiazol-4-yl)phenyl]-1,1-dioxo-2,3-dihydro-1H-benzo[d]isothiazol-3-yl}-N-hydroxyacetamide]	179 to 181 °C (dec.)
CN(C)c1ccc(N2C(CC(=O)NO)c3ccccc3S2(=O)=O)cc1 (stereo not drawn) [Compound (5.31), 2-[2-(4-Dimethylaminophenyl)-1,1-dioxo-2,3-dihydro-1H-benzo[d]isothiazol-3-yl]-N-hydroxyacetamide]	185 to 186 °C
O=C(CC1c2ccccc2S(=O)(=O)N1c1ccc(N2CCOCC2)cc1)NO (stereo not drawn) [Compound (5.32), 2-[2-(4-Morpholin-4-ylphenyl)-1,1-dioxo-2,3-dihydro-1H-benzo[d]isothiazol-3-yl]-N-hydroxyacetamide]	204 to 206 °C
CCOc1ccc(N2C(CC(=O)NO)c3ccccc3S2(=O)=O)cc1 (stereo not drawn) [Compound (5.33), 2-[2-(4-Ethoxyphenyl)-1,1-dioxo-2,3-dihydro-1H-benzo[d]isothiazol-3-yl]-N-hydroxyacetamide]	177 to 178 °C
CCCCOc1ccc(N2C(CC(=O)NO)c3ccccc3S2(=O)=O)cc1 (stereo not drawn) [Compound (5.34), 2-[2-(4-Butoxyphenyl)-1,1-dioxo-2,3-dihydro-1H-benzo[d]isothiazol-3-yl]-N-hydroxyacetamide]	165 to 166 °C
O=C(CC1c2ccccc2S(=O)(=O)N1c1cccc(F)c1)NO (stereo not drawn) [Compound (5.36), 2-[2-(3-Fluoro-phenyl)-1,1-dioxo-2,3-dihydro-1H-benzo[d]isothiazol-3-yl]-N-hydroxyacetamide]	145 to 147 °C (dec.)
